Measured values taken from patent US20260167619A2, “INDOLINE COMPOUNDS AND DERIVATIVES AS EGFR INHIBITORS” (BeOne Medicines I GmbH, priority 2020, published 2026).

Legend:
[1] = molecular target: T1, EGFR(L858R_T790M_C797S) (aa695-end, Invitrogen) (Homo sapiens, UniProt P00533, C797S/L858R/T790M); assay: Biochemical EGFR inhibition assay (TR-FRET), L858R/T790M/C797S mutant; conditions: ATP at Km, 15 min pre-incubation, 60 min reaction; read-out: LR_TM_CS (Km ATP) IC50
T1 construct: purchased Invitrogen
T1 sequence (P00533 695-1210 T790M/C797S/L858R): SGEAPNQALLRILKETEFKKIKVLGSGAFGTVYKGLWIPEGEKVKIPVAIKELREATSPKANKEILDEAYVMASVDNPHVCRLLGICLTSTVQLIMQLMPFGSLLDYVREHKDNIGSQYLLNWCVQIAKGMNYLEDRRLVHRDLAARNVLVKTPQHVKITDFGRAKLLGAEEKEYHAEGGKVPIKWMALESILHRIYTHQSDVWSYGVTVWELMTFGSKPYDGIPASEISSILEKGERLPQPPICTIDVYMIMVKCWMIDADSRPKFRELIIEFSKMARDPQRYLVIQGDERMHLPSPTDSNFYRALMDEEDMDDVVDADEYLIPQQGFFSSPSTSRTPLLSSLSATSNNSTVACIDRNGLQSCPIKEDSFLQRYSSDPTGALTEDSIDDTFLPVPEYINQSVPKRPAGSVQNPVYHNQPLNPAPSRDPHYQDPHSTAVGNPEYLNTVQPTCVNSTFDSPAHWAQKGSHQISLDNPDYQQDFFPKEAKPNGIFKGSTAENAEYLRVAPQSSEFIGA
Summary of the method: (§1)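 Recombinant kinase pre-incubated with compound 15 min at room temperature in 50 mM HEPES pH7.5, 10 mM MgCl2, 2 mM DTT, 1 mM EGTA, 0.1% BSA, 0.01% Tween-20; reaction started with ATP at Km plus biotin-poly GT, run 60 min at RT. HTRF read (665/620 nm); IC50 from four-parameter logistic fit.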

BaF3-WT cells = BaF3-WT cells (Homo sapiens, UniProt P00533); assay: Cell antiproliferation assay (CellTiter-Glo), BaF3-WT; format: cell-based; conditions: 48 h treatment, read-out: BaF3-WT IC50
Chain of BaF3-WT cells (P00533 whole entry, change not shown): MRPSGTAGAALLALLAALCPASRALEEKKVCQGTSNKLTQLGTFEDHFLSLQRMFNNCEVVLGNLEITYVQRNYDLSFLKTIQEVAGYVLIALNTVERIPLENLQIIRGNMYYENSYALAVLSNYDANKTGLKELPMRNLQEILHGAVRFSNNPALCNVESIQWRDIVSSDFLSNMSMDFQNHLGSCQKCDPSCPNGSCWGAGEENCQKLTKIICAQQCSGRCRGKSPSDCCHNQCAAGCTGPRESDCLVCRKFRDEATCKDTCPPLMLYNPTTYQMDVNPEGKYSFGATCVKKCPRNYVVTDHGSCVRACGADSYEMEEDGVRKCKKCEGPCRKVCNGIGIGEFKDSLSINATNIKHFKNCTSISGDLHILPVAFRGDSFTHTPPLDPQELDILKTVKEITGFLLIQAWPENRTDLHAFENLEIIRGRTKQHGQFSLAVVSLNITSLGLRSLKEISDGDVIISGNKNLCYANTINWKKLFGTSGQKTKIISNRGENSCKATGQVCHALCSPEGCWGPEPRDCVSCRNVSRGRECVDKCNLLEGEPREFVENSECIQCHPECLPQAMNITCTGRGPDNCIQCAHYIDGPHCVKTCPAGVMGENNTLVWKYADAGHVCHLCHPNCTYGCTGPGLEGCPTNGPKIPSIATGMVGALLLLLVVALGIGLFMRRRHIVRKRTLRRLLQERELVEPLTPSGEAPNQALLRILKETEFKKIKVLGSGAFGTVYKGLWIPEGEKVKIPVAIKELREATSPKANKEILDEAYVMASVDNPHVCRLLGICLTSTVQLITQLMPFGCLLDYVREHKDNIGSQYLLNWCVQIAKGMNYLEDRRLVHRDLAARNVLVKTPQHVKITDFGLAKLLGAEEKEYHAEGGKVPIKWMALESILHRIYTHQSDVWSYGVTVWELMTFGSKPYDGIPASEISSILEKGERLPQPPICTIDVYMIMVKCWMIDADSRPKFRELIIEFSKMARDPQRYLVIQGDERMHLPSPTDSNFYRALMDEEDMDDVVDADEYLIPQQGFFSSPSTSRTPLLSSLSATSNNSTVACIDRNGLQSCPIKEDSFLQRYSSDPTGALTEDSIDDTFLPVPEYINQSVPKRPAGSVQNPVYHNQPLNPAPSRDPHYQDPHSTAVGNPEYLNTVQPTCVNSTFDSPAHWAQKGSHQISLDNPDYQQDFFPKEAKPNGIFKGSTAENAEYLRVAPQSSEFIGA
Experimental: (§2) BaF3 cells are treated with compounds diluted in 0.2% DMSO, dilution is done according to the following protocol: (1) make 500× stock solution in DMSO from 5 mM by 5-fold dilution, total 8 doses were included; (2) make 10× solution in cell culture medium by transferring 2 μl 500× stock solution into 98 μl medium; (3) 10 μl of 10× solution is added to cells and incubate for 48 h.
(§3) After 48 h treatment, add 30 μl CellTiter-Glo reagent[CellTiter-Glo® 2.0, (Promega, Cat #G9242)] to each well; seal the plate and incubate 2 min at room temperature on a plate shaker; Allow the plate to incubate at room temperature for 10 minutes to stabilize the luminescent signal. Record luminescence on BMG PheraStar with luminescence protocol.
(§4) The IC50 value of a compound can be obtained by fitting the following equation
(§5) Wherein, X and Y are known values, and IC50, Hillslope, Top and Bottom are the parameters obtained by fitting with software. Y is the inhibition percentage (calculated from the equation), X is the concentration of the compound; IC50 is the concentration of the compound when the 50% inhibition is reached. The smaller the IC50 value is, the stronger the inhibitory ability of the compound is. Vice versa, the higher the IC50 value is, the weaker the ability the inhibitory ability of the compound is; Hillslope represents the slope of the fitted curve, generally around 1 *; Bottom represents the minimum value of the curve obtained by data fitting, which is generally 0%±20%; Top represents the maximum value of the curve obtained by data fitting, which is generally 100%±20%. The experimental data were fitted by calculating and analyzing with Dotmatics data analysis software.

[2] = molecular target: T2, EGFR (aa668-1210, Invitrogen) (Homo sapiens, UniProt P00533); assay: Biochemical EGFR inhibition assay (TR-FRET), wild-type EGFR; conditions: ATP at Km, 15 min pre-incubation, 60 min reaction; read-out: WT (Km ATP) IC50
T2 construct: EGFR (aa668-1210, Invitrogen); purchased Invitrogen
T2 sequence (P00533 668-1210): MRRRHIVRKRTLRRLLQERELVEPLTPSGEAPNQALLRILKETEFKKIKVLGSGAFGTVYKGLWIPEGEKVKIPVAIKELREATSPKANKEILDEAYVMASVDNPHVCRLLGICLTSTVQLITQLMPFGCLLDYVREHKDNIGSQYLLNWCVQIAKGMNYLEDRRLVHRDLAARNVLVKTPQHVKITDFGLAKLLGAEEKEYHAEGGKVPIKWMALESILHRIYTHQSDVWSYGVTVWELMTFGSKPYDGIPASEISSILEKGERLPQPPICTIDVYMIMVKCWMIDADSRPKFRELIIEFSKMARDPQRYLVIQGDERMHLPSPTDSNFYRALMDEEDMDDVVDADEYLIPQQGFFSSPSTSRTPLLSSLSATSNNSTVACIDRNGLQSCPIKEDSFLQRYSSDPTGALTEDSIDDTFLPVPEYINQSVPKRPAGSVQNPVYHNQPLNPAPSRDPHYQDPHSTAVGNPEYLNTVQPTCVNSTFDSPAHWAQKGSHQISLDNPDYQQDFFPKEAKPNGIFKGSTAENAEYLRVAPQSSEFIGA
Summary of the method: as §1

BaF3-LR_TM_CS cells = BaF3-LR_TM_CS cells (Homo sapiens, UniProt P00533, T790M/C797S/L858R, cells depend on it); assay: Cell antiproliferation assay (CellTiter-Glo), BaF3-LR_TM_CS; format: cell-based; conditions: 48 h treatment, read-out: BaF3-LR_TM_CS IC50
Experimental: as §2, §3, §4, §5

BaF3-Del_TM_CS cells = BaF3-Del_TM_CS cells (Homo sapiens, UniProt P00533, T790M/C797S, cells depend on it, form not given); assay: Cell antiproliferation assay (CellTiter-Glo), BaF3-Del_TM_CS; format: cell-based; conditions: 48 h treatment, read-out: BaF3-Del_TM_CS IC50
Chain of BaF3-Del_TM_CS cells (P00533 with tags, fused parts or gaps DEL746-750/T790M/C797S, form open): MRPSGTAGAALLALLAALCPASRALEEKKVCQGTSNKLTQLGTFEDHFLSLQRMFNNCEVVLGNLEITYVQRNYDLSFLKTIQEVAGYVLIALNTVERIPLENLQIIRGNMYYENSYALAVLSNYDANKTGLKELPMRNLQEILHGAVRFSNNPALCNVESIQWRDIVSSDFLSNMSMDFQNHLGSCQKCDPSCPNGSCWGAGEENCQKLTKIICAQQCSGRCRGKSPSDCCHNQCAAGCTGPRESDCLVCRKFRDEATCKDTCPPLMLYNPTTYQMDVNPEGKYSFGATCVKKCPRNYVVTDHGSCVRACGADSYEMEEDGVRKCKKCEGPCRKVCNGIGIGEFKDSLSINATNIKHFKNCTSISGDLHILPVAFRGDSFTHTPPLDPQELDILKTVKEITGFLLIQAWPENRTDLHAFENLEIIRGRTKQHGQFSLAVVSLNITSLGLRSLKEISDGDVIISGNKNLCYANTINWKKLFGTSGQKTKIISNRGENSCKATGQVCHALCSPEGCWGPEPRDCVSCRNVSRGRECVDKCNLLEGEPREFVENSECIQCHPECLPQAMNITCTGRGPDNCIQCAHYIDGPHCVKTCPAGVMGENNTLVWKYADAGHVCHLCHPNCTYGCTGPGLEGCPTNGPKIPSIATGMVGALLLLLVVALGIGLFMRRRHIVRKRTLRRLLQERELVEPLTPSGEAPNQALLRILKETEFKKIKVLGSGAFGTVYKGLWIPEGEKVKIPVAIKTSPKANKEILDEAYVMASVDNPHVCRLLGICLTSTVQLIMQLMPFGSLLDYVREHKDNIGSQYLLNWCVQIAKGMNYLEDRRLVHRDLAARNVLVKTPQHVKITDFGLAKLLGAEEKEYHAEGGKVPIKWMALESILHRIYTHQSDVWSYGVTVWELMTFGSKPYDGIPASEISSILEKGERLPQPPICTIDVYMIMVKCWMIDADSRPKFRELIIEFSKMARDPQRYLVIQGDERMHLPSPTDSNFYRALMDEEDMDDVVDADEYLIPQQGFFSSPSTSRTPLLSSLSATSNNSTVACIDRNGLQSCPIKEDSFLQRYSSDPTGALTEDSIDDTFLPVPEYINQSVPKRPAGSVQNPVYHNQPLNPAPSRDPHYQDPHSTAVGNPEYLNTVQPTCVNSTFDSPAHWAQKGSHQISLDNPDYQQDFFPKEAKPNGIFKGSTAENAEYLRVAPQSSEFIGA
Experimental: as §2, §3, §4, §5

[3] = molecular target: EGFR(Dell9_T790M_C797S) (aa 669-1210, in house) (Homo sapiens, UniProt P00533, T790M/C797S, form not given); assay: Biochemical EGFR inhibition assay (TR-FRET), Del19/T790M/C797S mutant; conditions: ATP at Km, 15 min pre-incubation, 60 min reaction; read-out: Del_TM_CS (Km ATP) IC50
Chain of EGFR(Dell9_T790M_C797S) (aa 669-1210, in house) (P00533 with tags, fused parts or gaps DEL746-750/T790M/C797S, form open): as above
Summary of the method: as §1

SMILES | IC50 [1] | GI50 (BaF3-WT cells) | IC50 [2] | GI50 (BaF3-LR_TM_CS cells) | GI50 (BaF3-Del_TM_CS cells) | IC50 [3]
CN1CCN(c2ccc(Nc3nc(Nc4cccc5c4N(S(C)(=O)=O)CC5)c4cc[nH]c4n3)cn2)CC1 [Example 123, N^2-(6-(4-methylpiperazin-1-yl)pyridin-3-yl)-N^4-(1-(methylsulfonyl)indolin-7-yl)-7H-pyrrolo[2,3-d]pyrimidine-2,4-diamine] | 0.0048 µM | 0.376 µM | 0.573 µM | 0.169 µM | 0.0643 µM | 0.0063 µM
COc1cc(N2C[C@H]3CN(C)C[C@H]3C2)c(C)cc1Nc1nc(Nc2cccc3c2N(S(C)(=O)=O)CC3)c2cc[nH]c2n1 [Example 102, N^2-(2-methoxy-5-methyl-4-((3aR,6aS)-5-methylhexahydropyrrolo[3,4-c]pyrrol-2(1H)-yl)phenyl)-N^4-(1-(methylsulfonyl)indolin-7-yl)-7H-pyrrolo[2,3-d]pyrimidine-2,4-diamine] | 0.0011 µM | 1.71 µM | 0.066 µM | 0.314 µM | 0.0304 µM | 0.002 µM
CN1CCN(C2CCN(c3ccc(Nc4ncc(Br)c(Nc5cccc6c5N(S(C)(=O)=O)CC6)n4)c4c3CCO4)CC2)CC1 [Example 50, 5-bromo-N^2-(4-(4-(4-methylpiperazin-1-yl)piperidin-1-yl)-2,3-dihydrobenzofuran-7-yl)-N^4-(1-(methylsulfonyl)indolin-7-yl)pyrimidine-2,4-diamine] | 0.001 µM | 2.73 µM | 0.014 µM | 0.176 µM | 0.019 µM | 0.00063 µM
CN1CCN(C2CCN(c3ccc(Nc4ncc(Cl)c(Nc5cccc6c5N(S(C)(=O)=O)CC6)n4)c4c3CCO4)CC2)CC1 [Example 49, 5-chloro-N^2-(4-(4-(4-methylpiperazin-1-yl)piperidin-1-yl)-2,3-dihydrobenzofuran-7-yl)-N^4-(1-(methylsulfonyl)indolin-7-yl)pyrimidine-2,4-diamine] | 0.00095 µM | 1.51 µM | 0.0038 µM | 0.0793 µM | 0.0193 µM | 0.00045 µM
COc1cc(N2CCC(N3CCN(C)CC3)CC2)ccc1Nc1nc(Nc2cccc3c2N(S(C)(=O)=O)CC3)c2nc[nH]c2n1 [Example 72, N^2-(2-methoxy-4-(4-(4-methylpiperazin-1-yl)piperidin-1-yl)phenyl)-N^6-(1-(methylsulfonyl)indolin-7-yl)-9H-purine-2,6-diamine] | 0.0014 µM | 2.6 µM | 0.0031 µM | 2.2 µM | 0.246 µM | 0.0013 µM
COc1cc(N2CCC(N3CCN(C)CC3)CC2)ccc1Nc1ncc(C#N)c(Nc2cccc3c2N(S(C)(=O)=O)CC3)n1 [Example 33, 2-((2-methoxy-4-(4-(4-methylpiperazin-1-yl)piperidin-1-yl)phenyl)amino)-4-((1-(methylsulfonyl)indolin-7-yl)amino)pyrimidine-5-carbonitrile] | 0.0013 µM | 0.328 µM | 0.0013 µM | 0.225 µM | 0.0685 µM | 0.001 µM
CN1CCN(c2ccc(Nc3nc(Nc4cccc5c4N(S(C)(=O)=O)CC5)c4cc[nH]c4n3)c(F)c2F)CC1 [Example 85, N^2-(2,3-difluoro-4-(4-methylpiperazin-1-yl)phenyl)-N^4-(1-(methylsulfonyl)indolin-7-yl)-7H-pyrrolo[2,3-d]pyrimidine-2,4-diamine] | 0.0089 µM | 0.274 µM | 1.3 µM | 0.141 µM | 0.0916 µM | 0.015 µM
CCCS(=O)(=O)N1CCc2cccc(Nc3nc(Nc4ccc(N5CCC(N6CCN(C)CC6)CC5)cc4OC)ncc3Cl)c21 [Example 6, 5-chloro-N^2-(2-methoxy-4-(4-(4-methylpiperazin-1-yl)piperidin-1-yl)phenyl)-N^4-(1-(propylsulfonyl)indolin-7-yl)pyrimidine-2,4-diamine] | 0.0018 µM | 1.85 µM | 0.0081 µM | 0.221 µM | 0.233 µM | 0.0051 µM
COc1cc(N2CCC(N3CCN(C)CC3)CC2)ccc1Nc1ncc(Cl)c(Nc2cccc3c2N(C(=O)N(C)C)CC3)n1 [Example 15, 7-((5-chloro-2-((2-methoxy-4-(4-(4-methylpiperazin-1-yl)piperidin-1-yl)phenyl)amino)pyrimidin-4-yl)amino)-N,N-dimethylindoline-1-carboxamide] | 0.369 µM | 4.12 µM | 1.36 µM | 2.03 µM | 1.8 µM | 2.2 µM
CN(C)C1CCN(c2ccc(Nc3ncc(Cl)c(Nc4cccc5c4N(S(C)(=O)=O)CC5)n3)c3c2CCO3)CC1 [Example 47, 5-chloro-N^2-(4-(4-(dimethylamino)piperidin-1-yl)-2,3-dihydrobenzofuran-7-yl)-N^4-(1-(methylsulfonyl)indolin-7-yl)pyrimidine-2,4-diamine] | 0.00085 µM | 0.63 µM | 0.0038 µM | 0.0378 µM | 0.0123 µM | 0.0003 µM

Stronger by IC50 [1], values ahead:

IC50 [1] | GI50 (BaF3-WT cells) | IC50 [2] | GI50 (BaF3-LR_TM_CS cells) | GI50 (BaF3-Del_TM_CS cells) | IC50 [3] | SMILES
0.0008 µM | 0.235 µM | 0.0042 µM | 0.0359 µM | 0.0101 µM | 0.00019 µM | CN(C)C1CCN(c2ccc(Nc3ncc(Cl)c(Nc4cccc5c4N(S(C)(=O)=O)CC5)n3)c3c2OCO3)CC1 [Example 51, 5-chloro-N2-(7-(4-(dimethylamino)piperidin-1-yl)benzo[d][1,3]dioxol-4-yl)-N4-(1-(methylsulfonyl)indolin-7-yl)pyrimidine-2,4-diamine]
0.00033 µM | 0.522 µM | 0.0031 µM | 0.109 µM | 0.0262 µM | 0.00047 µM | COc1cc(N2CCC(N3CCN(C)CC3)CC2)ccc1Nc1ncc(C(F)(F)F)c(Nc2cccc3c2N(S(C)(=O)=O)CC3)n1 [Example 31, N^2-(2-methoxy-4-(4-(4-methylpiperazin-1-yl)piperidin-1-yl)phenyl)-N^4-(1-(methylsulfonyl)indolin-7-yl)-5-(trifluoromethyl)pyrimidine-2,4-diamine]
0.00056 µM | 1.46 µM | 0.022 µM | 0.0765 µM | 0.0247 µM | 0.00096 µM | COc1cc(N2CCC(N3CCN(C)CC3)CC2)c(F)cc1Nc1nc(Nc2cccc3c2N(S(C)(=O)=O)CC3)c2cc[nH]c2n1 [Example 98, N^2-(5-fluoro-2-methoxy-4-(4-(4-methylpiperazin-1-yl)piperidin-1-yl)phenyl)-N4-(1-(methylsulfonyl)indolin-7-yl)-7H-pyrrolo[2,3-d]pyrimidine-2,4-diamine]
0.00042 µM | 0.145 µM | 0.0055 µM | 0.0187 µM | 0.0112 µM | 0.00012 µM | CN(C)C1CCN(c2ccc(Nc3ncc(Br)c(Nc4cccc5c4N(S(C)(=O)=O)CC5)n3)c3c2OCO3)CC1 [Example 52, 5-bromo-N^2-(7-(4-(dimethylamino)piperidin-1-yl)benzo[d][1,3]dioxol-4-yl)-N^4-(1-(methylsulfonyl)indolin-7-yl)pyrimidine-2,4-diamine]
0.00028 µM | 0.5 µM | 0.00036 µM | 0.0114 µM | 0.00454 µM | 0.00035 µM | COc1cc(N2CCC(N3CCN(C)CC3)CC2)c(C)cc1Nc1ncc(Cl)c(Nc2cccc3c2N(S(C)(=O)=O)CC3)n1 [Example 39, 5-chloro-N^2-(2-methoxy-5-methyl-4-(4-(4-methylpiperazin-1-yl)piperidin-1-yl)phenyl)-N^4-(1-(methylsulfonyl)indolin-7-yl)pyrimidine-2,4-diamine]
